The assay concerns the target T1, EHMT2 (Homo sapiens, UniProt Q96KQ7).
T1 construct: endogenous in cells; host or cells: MDA-MB-231 (ATCC)
T1 sequence (Q96KQ7 1-1210): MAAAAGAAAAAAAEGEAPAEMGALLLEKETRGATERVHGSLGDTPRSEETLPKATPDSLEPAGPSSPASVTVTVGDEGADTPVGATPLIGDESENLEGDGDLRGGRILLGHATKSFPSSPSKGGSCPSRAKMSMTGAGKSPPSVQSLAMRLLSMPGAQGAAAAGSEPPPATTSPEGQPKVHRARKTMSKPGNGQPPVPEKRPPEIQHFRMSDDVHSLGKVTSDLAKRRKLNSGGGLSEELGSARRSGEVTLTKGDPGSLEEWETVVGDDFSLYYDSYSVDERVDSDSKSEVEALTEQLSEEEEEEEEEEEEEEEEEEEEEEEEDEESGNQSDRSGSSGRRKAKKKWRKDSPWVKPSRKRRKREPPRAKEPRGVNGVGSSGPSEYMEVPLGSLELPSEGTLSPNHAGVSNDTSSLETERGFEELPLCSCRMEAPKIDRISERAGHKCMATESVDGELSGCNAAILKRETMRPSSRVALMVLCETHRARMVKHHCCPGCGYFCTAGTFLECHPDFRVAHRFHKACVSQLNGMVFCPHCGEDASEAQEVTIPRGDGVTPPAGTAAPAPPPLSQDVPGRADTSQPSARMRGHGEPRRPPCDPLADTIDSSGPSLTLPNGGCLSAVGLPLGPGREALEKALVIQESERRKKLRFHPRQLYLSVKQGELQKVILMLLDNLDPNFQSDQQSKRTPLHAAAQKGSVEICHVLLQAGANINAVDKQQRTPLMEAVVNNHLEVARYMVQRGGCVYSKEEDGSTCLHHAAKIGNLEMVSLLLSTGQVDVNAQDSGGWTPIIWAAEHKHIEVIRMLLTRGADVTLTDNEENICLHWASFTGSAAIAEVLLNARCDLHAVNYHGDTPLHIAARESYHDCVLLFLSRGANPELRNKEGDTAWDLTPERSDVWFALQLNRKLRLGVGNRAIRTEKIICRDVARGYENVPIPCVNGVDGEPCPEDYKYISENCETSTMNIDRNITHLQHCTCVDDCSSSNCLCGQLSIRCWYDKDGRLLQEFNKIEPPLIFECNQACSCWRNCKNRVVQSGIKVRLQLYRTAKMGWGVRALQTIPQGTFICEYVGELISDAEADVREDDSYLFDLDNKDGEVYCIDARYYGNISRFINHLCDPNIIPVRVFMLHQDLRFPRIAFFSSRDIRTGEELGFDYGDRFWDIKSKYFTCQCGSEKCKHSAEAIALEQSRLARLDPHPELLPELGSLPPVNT
Briefly: MDA-MB-231 H3K9me2 in-cell Western assay (EHMT2 ICW). Format: cell-based. Conditions: MDA-MB-231 cells, H3K9me2 in-cell Western; read-out: EHMT2 ICW (IC50 μM). The source says:
MDA-MB-231 cell line was purchased from ATCC (Manassas, Va., USA). RPMI/Glutamax medium, Penicillin-Streptomycin, Heat Inactivated Fetal Bovine Serum, and D-PBS were purchased from Life Technologies (Grand Island, N.Y., USA). Odyssey blocking buffer, 800CW goat anti-mouse IgG (H+L) antibody, and Licor Odyssey Infrared Scanner were purchased from Licor Biosciences, Lincoln, Nebr., USA. H3K9me2 mouse monoclonal antibody (Cat #1220) was purchased from Abcam (Cambridge, Mass., USA). 16% Paraformaldehyde was purchased from Electron Microscopy Sciences, Hatfield, Pa., USA). MDA-MB-231 cells were maintained in complete growth medium (RPMI supplemented with 10% v/v heat inactivated fetal bovine serum) and cultured at 37° C. under 5% CO2. UNC0638 was purchased from Sigma-Aldrich (St. Louis, Mo., USA).
General Procedure for MDA-MB-231 HEK9me2 in-cell Western Assay. Compound (100 nL) was added directly to 384-well cell plate. MDA-MB-231 cells (ATCC) were seeded in assay medium (RPMI/Glutamax supplemented with 10% v/v heat inactivated fetal bovine serum and 1% Penicillin/Streptomycin, Life Technologies) at a concentration of 3,000 cells per well to a Poly-D-Lysine coated 384-well cell culture plate with 50 μL per well. Plates were incubated at 37° C., 5% CO2 for 48 hours (BD Biosciences 356697). Plates were incubated at room temperature for 30 minutes and then incubated at 37° C., 5% CO2 for additional 48 hours. After the incubation, 50 μL per well of 8% paraformaldehyde (Electron Microscopy Sciences) in PBS was added to the plates and incubated at room temperature for 20 minutes. Plates were transferred to a Biotek 406 plate washer and washed 2 times with 100 μL per well of wash buffer (1×PBS containing 0.3% Triton X-100 (v/v)). Next, 60 μL per well of Odyssey blocking buffer (Licor Biosciences) was added to each plate and incubated for 1 hour at room temperature. Blocking buffer was removed and 20 μL of monoclonal primary antibody α-H3K9me2 (Abcam) diluted 1:800 in Odyssey buffer with 0.1% Tween 20 (v/v) were added and plates were incubated overnight (16 hours) at 4° C. Plates were washed 5 times with 100 μL per well of wash buffer. Next 20 μL per well of secondary antibody was added (1:500 800CW donkey anti-mouse IgG (H+L) antibody (Licor Biosciences), 1:1000 DRAQ5 (Cell Signaling Technology) in Odyssey buffer with 0.1% Tween 20 (v/v)) and incubated for 1 hour at room temperature. The plates were washed 5 times with […] wash buffer then 2 times with 100 μL per well of water. Plates were allowed to dry at room temperature then imaged on a Licor Odyssey Infrared Scanner (Licor Biosciences) which measured integrated intensity at 700 nm and 800 nm wavelengths. Both 700 and 800 channels were scanned.
% Inhibition Calculation. First, the ratio for each well was determined by:
Each plate included fourteen control wells of DMSO only treatment (Minimum Inhibition) as well as fourteen control wells (background wells) for maximum inhibition treated with control compound UNC0638 (Background wells).
The average of the ratio values for each well was calculated and used to determine the percent inhibition for each test well in the plate. Control compound was serially diluted three-fold in DMSO for a total of 10 test concentrations beginning at 1 μM. Percent inhibition was calculated as: […]
IC50 curves were generated using triplicate wells per concentration of compound. The IC50 is the concentration of compound at which measured methylation is inhibited by 50% as interpolated from the dose response curves. IC50 values were calculated using a non-linear regression (variable slope-four parameter fit model) with by the following formula:
where Top is fixed at 100% and Bottom is fixed to 0%, [I]=concentration of inhibitor, IC50=half maximal inhibitory concentration, and n=Hill Slope.

17 molecules from patent US20220274961A1, “SUBSTITUTED FUSED BI- OR TRI- HETEROCYCLIC COMPOUNDS AS EHMT2 INHIBITORS” (priority 2016, published 2022) can be followed below.

By IC50 is commonly meant the concentration that inhibits the measured activity by half. For the molecule `COc1cc2[nH]c(N)nc2cc1OCCCN1CCCC1` [Compound 1, 6-methoxy-5-(3-(pyrrolidin-1-yl)propoxy)-1H-benzo[d]imidazol-2-amine], the IC50 is 1 to 10 µM.

On to `COc1cc2c(cc1OCCCN1CCCC1)nc(C)n2C` [Compound 21, 6-methoxy-1,2-dimethyl-5-(3-(pyrrolidin-1-yl)propoxy)-1H-benzo[d]imidazole], for which the IC50 is greater than 10 µM.

With `CCn1c(NC)nc2cc(OCCCN3CCCC3)c(OC)cc21` [Compound 42], the IC50 is less than 0.1 µM.

On to `COCCNC1=Nc2cc(C#CCN3CCCCC3)c(OC)cc2C12CCC2` [Compound 99], for which the IC50 is 0.1 to 1 µM.

For the molecule `CNC1=Nc2cc(C#CC(C)N3CCCC3)c(OC)cc2C12CCC2` (centres unmarked) [Compound 84], the IC50 lay within 0.1 to 1 µM.

With `CCN1CC[C@@H](COc2cc3nc(N)n(C4CCCC4)c3cc2OC)C1` [Compound 9, 1-cyclopentyl-5-[[(3R)-1-ethylpyrrolidin-3-yl]methoxy]-6-methoxy-1H-1,3-benzodiazol-2-amine], the IC50 lay in the range of 0.1 to 1 µM.

Regarding `COc1cc2c(cc1OC[C@H](O)CN1CCCC1)nc(NC1CCOCC1)n2C` [Compound 35], the IC50 was greater than 10 µM.

As to `CNC1=Nc2cc(C#C[C@@H](C)N3CCCC3)c(OC)cc2C12CCC2` [Compound 86], the IC50 fell in the range of 0.1 to 1 µM.

In the case of `CNc1nc2cc(CNCCN3CCCC3)c(C)cc2n1C(C)C` [Compound 139], the IC50 lay in the range of 1 to 10 µM.

In the case of `CNC1=Nc2cc(C#CCN3CCC(F)C3)c(OC)cc2C12CCC2` (centres unmarked) [Compound 100], the IC50 fell in the range of 1 to 10 µM.

For the molecule `CCNC1=Nc2cc(CNCCN3CCCC3)c(OC)cc2C12CCC2` [Compound 71], the IC50 was in the range of 1 to 10 µM.

Consider `CNc1nc2cc(CNCCN3CCCC3)c(OC)cc2n1C(C)C` [Compound 40], for which the IC50 fell in the range of 1 to 10 µM.

`CNc1nc2cc(OC[C@H](O)CN3CCC3)c(OC)cc2n1C` [Compound 25]: the IC50 lay within 0.1 to 1 µM.

`CCNc1nc2cc(OC[C@H](O)CN3CCCC3)c(OC)cc2n1C` [Compound 31]: the IC50 fell in the range of 0.1 to 1 µM.

Consider `COc1cc2c(cc1OCCCN1CCCC1)nc(NC1CCCC1)n2C` [Compound 30], for which the IC50 lay in the range of 1 to 10 µM.

In the case of `CCNc1nc2cc(OCCCN3CCCC3)c(OC)cc2n1C` [Compound 27], the IC50 lay within 0.1 to 1 µM.

Regarding `COc1cc2c(cc1OCCCN1CCCC1)N=C(N)C21CCOCC1` [Compound 5, 5-methoxy-6-(3-(pyrrolidin-1-yl)propoxy)-2′,3′,5′,6′-tetrahydrospiro[indole-3,4′-pyran]-2-amine], the concentration for half-maximal inhibition (IC50) lay within 0.1 to 1 µM.
